Common to all, as to format: cell-based
For assay [1], the system named is IL-2. The experiment in a line: Inhibition of IL-2 release in PBMC. The conditions noted are these: Homo sapiens, Concanavalin A + PMA, 20 h, read-out: IC 50 PBMC IL-2. The procedure: (§1) Inhibition of cytokine IL-2, IL-4, IL-5 and TNF α was determined as described below.
(§2) PBMC from freshly collected HWB were isolated by density gradient using Histopaque and seeded in a 96-well plate. Cells were incubated with desired concentrations of the inhibitor for 15 min. Cytokine release was induced by the addition of Concanavalin A (25 μg/ml)+Phorbol Myristate Acetate (50 ng/ml) for IL-2 & TNFα or with Phytohemagglutinin (5 μg/ml) for IL-4 & IL-5 and incubated at 37° C. in an atmosphere containing […]. Supernatant was collected after 20 h (IL-2 & TNFα) or 48 h (IL-4 & IL-5) for estimation of cytokines by ELISA. Data were analysed using GraphPad Prism. IC50 values for each compound were determined based on the percent inhibition due to the test compound compared to the control.

The test system of assay [2] is IL-4. Kind of assay: Inhibition of IL-4 release in human whole blood. Conditions: Phytohemagglutinin, 48 h, read-out: IC 50 Human Whole Blood IL-4. The procedure: as §1
as §2, with “Freshly” for “PBMC from freshly”, “was diluted with RPMI medium (1:4.5)” for “were isolated by density gradient using Histopaque”, “added to” for “seeded in”, “Wells” for “Cells”

Assay [3] concerns IL-5. Kind of assay: Inhibition of IL-5 release in PBMC. The conditions noted are these: Homo sapiens, Phytohemagglutinin, 48 h, read-out: IC 50 PBMC IL-5. The procedure: as §1, §2
In the next assay the target is CRAC channels (Homo sapiens (Human), UniProt Q96D31). Kind of assay: In-vitro CRAC channel inhibition assay in Jurkat cells (thapsigargin-induced calcium influx). The procedure: Inhibition of CRAC channels was determined following thapsigargin (Sigma, Cat # T9033) induced endoplasmic calcium release in Jurkat cells. (see Yasurio Yonetoky et. al Bio. & Med. Chem. 14 (2006) 4750-4760). Cells were centrifuged and resuspended in equal volumes ° f Ca^2+ and Mg^2+ free Hanks buffer and Fluo-8 NW dye (ABD Bioquest, Inc., Sunnyvale, Calif.) loading solution at 2×10^5 cells/100 μl/well in 96-well black plate. Plate is incubated at 37° C./5% CO2 for 30 mM followed by further 15 mM incubation at room temperature. Test compounds (DMSO stocks diluted in Ca^2+ and Mg^2+ free Hanks buffer) at desired concentrations were added to the wells and incubated for […]. Thapsigargin (1 μM final concentration) was added to the wells and incubated for 15 min to inhibit the Sarco-endoplasmic reticulum Ca^2+ ATPase pump thereby depleting endoplasmic calcium and raising cytosolic calcium concentrations. Store-operated calcium entry was initiated by adding extracellular Ca^2+ to a final concentration of 1.8 mM. Fluorescence was monitored over […] on a plate reader (BMG Labtech., Germany) with excitation at 485 nm and an emission wavelength at 520 nm. Data were analyzed using GraphPad Prism. IC50 for each compound was determined based on the percent inhibition of thapsigargin-induced calcium influx into cells.
Sequence of CRAC channels (Q96D31 whole entry): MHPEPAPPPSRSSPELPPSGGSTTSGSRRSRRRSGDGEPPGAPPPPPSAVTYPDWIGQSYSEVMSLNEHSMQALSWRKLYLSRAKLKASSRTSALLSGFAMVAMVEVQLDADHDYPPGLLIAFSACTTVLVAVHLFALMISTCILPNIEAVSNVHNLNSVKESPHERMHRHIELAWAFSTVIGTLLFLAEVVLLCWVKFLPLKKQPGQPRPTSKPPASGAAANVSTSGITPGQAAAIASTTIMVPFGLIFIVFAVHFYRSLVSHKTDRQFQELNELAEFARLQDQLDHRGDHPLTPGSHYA

The subject of assay [4] is TNFα. Kind of assay: Inhibition of TNFα release in human whole blood. Conditions: Concanavalin A + PMA, 20 h, read-out: IC 50 Human Whole Blood TNFα. The procedure:
as §1
as §2, with “Freshly” for “PBMC from freshly”, “was diluted with RPMI medium (1:4.5)” for “were isolated by density gradient using Histopaque”, “added to” for “seeded in”, “Wells” for “Cells”

The test system of assay [5] is IL-2. The experiment in a line: Inhibition of IL-2 release in human whole blood. Conditions: Concanavalin A + PMA, 20 h, read-out: IC 50 Human Whole Blood IL-2. The procedure:
as §1
as §2, with “Freshly” for “PBMC from freshly”, “was diluted with RPMI medium (1:4.5)” for “were isolated by density gradient using Histopaque”, “added to” for “seeded in”, “Wells” for “Cells”

In assay [6] the test system is IL-4. Kind of assay: Inhibition of IL-4 release in PBMC. Conditions: Homo sapiens, Phytohemagglutinin, 48 h, read-out: IC 50 PBMC IL-4. On the procedure:
as §1, §2

For assay [7], the system named is TNFα. Kind of assay: Inhibition of TNFα release in PBMC. The conditions noted are these: Homo sapiens, Concanavalin A + PMA, 20 h, read-out: IC 50 PBMC TNFα. The procedure:
as §1, §2

The test system of assay [8] is IL-5. The experiment in a line: Inhibition of IL-5 release in human whole blood. The conditions noted are these: Phytohemagglutinin, 48 h, read-out: IC 50 Human Whole Blood IL-5. The procedure: as §1
as §2, with “Freshly” for “PBMC from freshly”, “was diluted with RPMI medium (1:4.5)” for “were isolated by density gradient using Histopaque”, “added to” for “seeded in”, “Wells” for “Cells”

Consider one compound from US8993612B2, “Modulators of calcium release-activated calcium channel and methods for treatment of non-small cell lung cancer” (Rhizen Pharmaceuticals SA, priority 2009, dated 2015).

The inhibition is the share of the control response that was lost under treatment.

With `O=C(Cn1nnc2ccccc21)Nc1ccc(-n2nc(C(F)(F)F)cc2C2CC2)cc1` [Example 20, 2-(1H-benzo[d][1,2,3]triazol-1-yl)-N-{4-[5-cyclopropyl-3-(trifluoromethyl)-1H-pyrazol-1-yl]phenyl}acetamide], the IC50 with IL-2 [1] amounted to 383 nM; with IL-4 [2], 1230 nM; in the assay on IL-5 [3] it was 149 nM; on CRAC channels, 39.2 nM; in the assay on TNFα [4], 35.6 nM; with IL-2 [5], 40.7 nM. The figures for the IC50 with IL-4 [6], in the assay on TNFα [7] and with IL-5 [8] were 540 nM, 138 nM and 164 nM, respectively. Besides, on CRAC channels (1 uM), the inhibition at 1 µM was determined as 100%.
